Test system: MCF-7 cells
Assay: MCF-7 Estrogen Dependent Proliferation Assay
Format: cell-based
Settings: Homo sapiens, MCF7, addition to Estrogen Depleted Media (EDM), read-out: EC50 of growth stimulation of MCF-7 cells
Excerpt: MCF-7 cells (ATCC #HTB-22) are human mammary gland adenocarcinoma cells that require estrogen for growth. The growth media (GM) for the MCF-7 cells is Minimum Essential Media (without phenol red) supplemented with fetal bovine serum (FBS) to 10%. The FBS serves as the sole source of estrogen and this GM supports the full growth of the cells and is used for the routine growth of the cell cultures. When MCF-7 cells are placed in a media in which 10% Charcoal-Dextran treated fetal bovine serum (CD-FBS) is substituted for FBS, the cells will cease to divide but will remain viable. […] The addition of estradiol to EDM stimulates the growth of the MCF-7 cells in a dose dependent manner with an EC50 of 2 pM. Growing MCF-7 cells are washed several times with EDM and the cultures then maintained in EDM for a minimum of 6 days in order to deplete the cells of endogenous estrogen. […] At this point, the culture supernatants are aspirated, the cells washed 2× with PBS, the wash solution aspirated and the protein content of each well determined. Each drug dilution is evaluated on a minimum of 5 wells and the range of dilution of the test compounds in the assay is 0.001 nM to 1000 nM. […] The assay is terminated at day 8–10 when the appropriate controls reach 80–90% confluency and the protein content of each well is determined as above.

C[C@]12CC[C@@H]3c4ccc(O)cc4CC[C@H]3[C@@H]1CC[C@@H]2O [estradiol]
EC50: 2 pM
